Common to all, as to assay type: functional
Experiment [1] deals with Rotala indica. The experiment in a line: Herbicidal activity against Rotala indica assessed as killing at 100 g/10 acre measured after 3 weeks by pre-emergence/paddy application test.
For experiment [2], the system named is Echinochloa crus-galli. Kind of experiment: Herbicidal activity against Echinochloa crus-galli (barnyard grass) assessed as killing at 100 g/10 acre measured after 3 weeks by post-emergence/foliar application test.
Experiment [3] has as its system Chenopodium album. The experiment in a line: Herbicidal activity against Chenopodium album assessed as killing at 100 g/10 acre measured after 3 weeks by pre-emergence/field application test.
For experiment [4], the system named is Stellaria media. The experiment in a line: Herbicidal activity against Stellaria media assessed as killing at 100 g/10 acre measured after 3 weeks by pre-emergence/field application test.
The test system of experiment [5] is Echinochloa oryzicola. The experiment in a line: Herbicidal activity against Echinochloa oryzicola assessed as killing at 100 g/10 acre measured after 3 weeks by pre-emergence/paddy application test.
The test system of experiment [6] is Digitaria ciliaris. Kind of experiment: Herbicidal activity against Digitaria ciliaris assessed as killing at 100 g/10 acre measured after 3 weeks by post-emergence/foliar application test.
In experiment [7] the test system is Pontederia vaginalis. Kind of experiment: Herbicidal activity against Monochoria vaginalis assessed as killing at 100 g/10 acre measured after 3 weeks by pre-emergence/paddy application test.
Experiment [8] concerns Chenopodium album. The experiment in a line: Herbicidal activity against Chenopodium album assessed as killing at 100 g/10 acre measured after 3 weeks by post-emergence/foliar application test.
Experiment [9] concerns Echinochloa crus-galli. The experiment in a line: Herbicidal activity against Echinochloa crus-galli (barnyard grass) assessed as killing at 100 g/10 acre measured after 3 weeks by pre-emergence/field application test.
For experiment [10], the system named is Stellaria media. Kind of experiment: Herbicidal activity against Stellaria media assessed as killing at 100 g/10 acre measured after 3 weeks by post-emergence/foliar application test.
Experiment [11] concerns Digitaria ciliaris. The experiment in a line: Herbicidal activity against Digitaria ciliaris assessed as killing at 100 g/10 acre measured after 3 weeks by pre-emergence/field application test.
Experiment [12] relates to Schoenoplectiella juncoides. The experiment in a line: Herbicidal activity against Schoenoplectiella juncoides assessed as killing at 100 g/10 acre measured after 3 weeks by pre-emergence/paddy application test.
For experiment [13], the system named is Schoenoplectiella juncoides. The experiment in a line: Herbicidal activity against Schoenoplectiella juncoides assessed as killing at 800 g/10 acre measured after 3 weeks by pre-emergence/paddy application test.
Experiment [14] concerns Echinochloa oryzicola. Kind of experiment: Herbicidal activity against Echinochloa oryzicola assessed as killing at 800 g/10 acre measured after 3 weeks by pre-emergence/paddy application test.
Experiment [15] relates to Digitaria ciliaris. The experiment in a line: Herbicidal activity against Digitaria ciliaris assessed as killing at 400 g/10 acre measured after 3 weeks by post-emergence/foliar application test.
In experiment [16] the test system is Stellaria media. The experiment in a line: Herbicidal activity against Stellaria media assessed as killing at 800 g/10 acre measured after 3 weeks by pre-emergence/field application test.
The test system of experiment [17] is Chenopodium album. Kind of experiment: Herbicidal activity against Chenopodium album assessed as killing at 400 g/10 acre measured after 3 weeks by post-emergence/foliar application test.
Experiment [18] concerns Digitaria ciliaris. The experiment in a line: Herbicidal activity against Digitaria ciliaris assessed as killing at 800 g/10 acre measured after 3 weeks by pre-emergence/field application test.
Experiment [19] concerns Echinochloa crus-galli. The experiment in a line: Herbicidal activity against Echinochloa crus-galli (barnyard grass) assessed as killing at 400 g/10 acre measured after 3 weeks by post-emergence/foliar application test.
Experiment [20] deals with Stellaria media. The experiment in a line: Herbicidal activity against Stellaria media assessed as killing at 400 g/10 acre measured after 3 weeks by post-emergence/foliar application test.
Experiment [21] deals with Chenopodium album. The experiment in a line: Herbicidal activity against Chenopodium album assessed as killing at 800 g/10 acre measured after 3 weeks by pre-emergence/field application test.
Experiment [22] concerns Echinochloa crus-galli. The experiment in a line: Herbicidal activity against Echinochloa crus-galli (barnyard grass) assessed as killing at 800 g/10 acre measured after 3 weeks by pre-emergence/field application test.
Experiment [23] relates to Pontederia vaginalis. The experiment in a line: Herbicidal activity against Monochoria vaginalis assessed as killing at 800 g/10 acre measured after 3 weeks by pre-emergence/paddy application test.
Experiment [24] has as its system Rotala indica. The experiment in a line: Herbicidal activity against Rotala indica assessed as killing at 800 g/10 acre measured after 3 weeks by pre-emergence/paddy application test.

Structures are written as SMILES.

In the case of `Cc1ccc(CNc2nc(C)nc(C(F)(F)F)n2)cc1`, the Activity with Rotala indica [1] is 76%; with Echinochloa crus-galli [2], 1%; in the experiment on Chenopodium album [3], 91%; with Stellaria media [4], 91%; with Echinochloa oryzicola [5], 51%; in the experiment on Digitaria ciliaris [6] it was 0%. Further, the Activity with Pontederia vaginalis [7] is 26%; with Chenopodium album [8] it was 91%; in the experiment with Echinochloa crus-galli [9] it was 76%; in the experiment on Stellaria media [10], 100%; in the experiment with Digitaria ciliaris [11] it was 1%; in experiment [12], 0%.

Turning to `c1ccc(CNc2ncncn2)cc1`, the Activity (in [13]; with Echinochloa oryzicola [14]; in the experiment with Digitaria ciliaris [15]; in the experiment with Stellaria media [16]; with Chenopodium album [17]; in the experiment with Digitaria ciliaris [18]) was 0% each time. Also, the Activity in the experiment on Echinochloa crus-galli [19], in the experiment with Stellaria media [20], with Chenopodium album [21], with Echinochloa crus-galli [22], in the experiment with Pontederia vaginalis [23] and in the experiment with Rotala indica [24] was 0% throughout.

As for `Cc1ncnc(NCc2ccccc2)n1`, the Activity in [13] was found to be 0%; in the experiment with Echinochloa oryzicola [14] it was 51%; in the experiment on Digitaria ciliaris [15], 0%; in the experiment with Stellaria media [16], 0%; with Chenopodium album [17], 0%; in the experiment on Digitaria ciliaris [18], 0%. Further, the Activity in the experiment on Echinochloa crus-galli [19], with Stellaria media [20], with Chenopodium album [21], in the experiment with Echinochloa crus-galli [22], with Pontederia vaginalis [23] and with Rotala indica [24] was 0% each time.

Consider `Cc1nc(NCc2ccccc2)nc(-c2ccccc2)n1`, for which the Activity (in experiment [13]; in the experiment with Echinochloa oryzicola [14]; in the experiment with Digitaria ciliaris [15]; in the experiment with Stellaria media [16]; in the experiment on Chenopodium album [17]; with Digitaria ciliaris [18]) was 0% each time. In addition, the Activity in the experiment with Echinochloa crus-galli [19], in the experiment on Stellaria media [20], with Chenopodium album [21], with Echinochloa crus-galli [22], in the experiment on Pontederia vaginalis [23] and in the experiment with Rotala indica [24] was 0% in each case.

Consider `CC(C)c1nc(NCc2ccccc2)nc(C(F)(F)F)n1`, for which the Activity was 100% in experiment [13]; 100% in the experiment with Echinochloa oryzicola [14]; 0% in the experiment on Digitaria ciliaris [15]; 26% with Stellaria media [16]; 0% with Chenopodium album [17]; 76% in the experiment with Digitaria ciliaris [18]. Also, the Activity in the experiment on Echinochloa crus-galli [19] is 0%; in the experiment on Stellaria media [20], 0%; in the experiment on Chenopodium album [21], 76%; with Echinochloa crus-galli [22] it was 76%; in the experiment on Pontederia vaginalis [23], 100%; in the experiment with Rotala indica [24], 91%.

Turning to `Cc1nc(NCc2ccccc2)nc(C(Cl)(Cl)Cl)n1`, the Activity in [13] is recorded as 51%; in the experiment with Echinochloa oryzicola [14] it was 76%; in the experiment with Digitaria ciliaris [15] it was 0%; in the experiment with Stellaria media [16] it was 0%; in the experiment on Chenopodium album [17], 0%; with Digitaria ciliaris [18] it was 0%. The Activity with Echinochloa crus-galli [19] is listed as 0%; with Stellaria media [20], 0%; in the experiment with Chenopodium album [21], 0%; in the experiment on Echinochloa crus-galli [22], 0%; in the experiment with Pontederia vaginalis [23], 100%; in the experiment with Rotala indica [24], 91%.

(Values after ChEMBL document CHEMBL3045804, “Synthesis and Herbicidal Activity of 2-Benzylamino-4-methyl-6-trifluoromethyl-1, 3, 5-triazune Derivatives” (J Pestic Sci, 1998).)
